Test results from PMC10721329, “Quisinostat is a brain-penetrant radiosensitizer in glioblastoma” (JCI Insight, 2023).
Where “and” joins values, the source holds several entries; their conditions need not be identical. Identical values can stand only once.

Key:
[1] = Stability in neurobasal cell culture medium at 37°C; type: in vitro ADME; conditions: for %stability: neurobasal cell media, 37C
Description: Hydroxamic acid–based compounds have been reported to display poor stability and high plasma clearance due to the presence of arylesterases and carboxylesterases in rodent blood ([34]). Therefore, we measured the stability of QST in mouse plasma and brain to determine whether drug degradation occurred during our sample preparations and equilibrium dialyses for the determination of unbound drug level (performed at 37°C). […] QST degradation was also observed in mouse brain homogenate (Figure 6B). However, perfusion of mice before brain collection prevented rapid drug degradation in the brain matrix. […] Degradation of QST can also be constrained if plasma and brain samples are processed at 4°C (Supplemental Figure 4A). All subsequent sample preparations were therefore performed on ice-cold baths to avoid degradation of QST in our PK analyses. […] The observed stability is probably due to the absence of esterases in human matrices, which are responsible for degradation of QST ([34]). Because we employed QST in several in vitro studies (Figures 1–4), the stability of the molecule was also tested in the cell media used to culture GSCs (neurobasal medium; see Methods).
Stability Study in Mouse Plasma, Mouse Brain, Human Plasma, Human Brain, and Neural […]
The stability of QST was determined in BALB/c mouse plasma, male nude athymic perfused and nonperfused mouse brain homogenate (1:9 w/v of PBS; pH 7.4), human brain (obtained from VRL Eurofins) homogenate (1:4 w/v of PBS; pH 7.4), pooled human plasma (Innovative Research), and neurobasal media. QST stock solutions (1 mM) were prepared in acetonitrile, subsequently diluted in a 40% methanol mixture, and added t o the matrices to make final concentrations of 100 nM or 10 nM. Then 50 or 30 µL of either plasma or brain homogenate containing QST were aliquoted into 1.5-mL microcentrifuge tubes (Eppendorf) and were incubated at either 4 °C or 37 °C for 0, 2, 4, 6, 12, or 24 hours (n = 3 at each time point). […]
Plasma and brain […]
homogenate samples were stored at −80 °C until LC-MS/MS analysis. […]

orthotopic GB126 tumors = experiment: End-stage immunoblot of orthotopic GB126 tumors (H3K9/14ac, H3K27ac); type: in vivo, athymic nude mice; conditions: endpoint PDX tumors, individual mice
Description: All mice included in the survival study were processed for end-point PK and PD analyses once moribund. Plasma, tumor, and contralateral brain tissues were harvested 3 hours after dosing with 10 mg/kg QST, allowing for direct comparison of long-term treatment with the PK-PD data collected from acute (1-week) treatment with QST or combination therapy (Figure 8A). […] There were no significant differences in total or unbound drug concentrations in tumor or brain tissue between the monotherapy or combination therapy cohorts (Figure 8, E and F). Immunoblot analysis of dissected tumor samples confirmed that QST induced substantial histone H3 hyperacetylation in brain tumors, compared with untreated animals, consistent with an in vivo on-target effect (Figure 9, A and B). […]
4). Protein concentrations from whole-cell extracts were determined using the Bradford Protein Assay (ThermoFisher Scientific). Equal amounts of protein (10-40 μg/lane) were loaded onto 10% or 12.5% sodium dodecyl sulfate–polyacrylamide gel electrophoresis gels and transferred to a polyvinylidene fluoride membrane (Millipore-Sigma).
Cellular protein from frozen tissue of non–tumor-bearing mouse brains, tumor-bearing mouse brains, and flank tumors were homogenized in a prechilled glass tissue grinder (VWR) with RIPA lysis buffer containing protease and phosphatase inhibitors (ThermoFisher Scientific), with 500 uL of RIPA buffer for 10 mg of tissue. Once homogenized, the tissue lysates were kept on ice for 30 minutes and vortexed every 10 minutes. The samples were then centrifuged at 15,000 rpm for 10 minutes at 4 °C to collect the protein lysates.
Membranes were blocked with 5% nonfat milk for 1 hour at room temperature and incubated overnight with primary antibody at 4 °C. Primary antibodies used were rabbit anti-p21 […]
Signaling Technologies, 9677), mouse anti-Histone H3 (1:1000, Cell Signaling 14269), mouse

[2] = Body weight / tolerability in non-tumor-bearing mice; type: in vivo, athymic nude mice; conditions: for weight of normal nude mice during QST treatment: QST 10 mg/kg, individual mice
[3] = system: histone H3 acetylation (H3K9/14ac); experiment: H3K9/14ac immunoblot of normal brain tissue; type: in vivo, athymic nude mice; conditions: QST 10 mg/kg IP MWF 2 weeks, individual mice
Description: Insufficient drug exposure in the brain is a major hurdle in the treatment of brain tumors. […] On the last treatment day, blood and intact brains were harvested 2 hours after dosing with QST (Figure 6E). […] Each brain hemisphere was processed separately to perform matched PK and PD analyses from the same animal. […] For PD analyses, we homogenized entire hemispheres to obtain whole-tissue protein lysates from each mouse and assessed changes in histone H3 acetylation levels using immunoblotting.
Cellular protein from cultured cells was homogenized in radioimmunoprecipitation assay (RIPA) lysis buffer containing protease and phosphatase inhibitors (ThermoFisher Scientific), rotated at 4 °C for 20 minutes and then centrifuged at 15,000 rpm for 10 minutes at 4 °C. For histone extractions, benzonase (0.1 U/μL) was added in RIPA buffer (Millipore-Sigma, 70746-4). Protein concentrations from whole-cell extracts were determined using the Bradford Protein Assay (ThermoFisher Scientific). Equal amounts of protein (10-40 μg/lane) were loaded onto 10% or 12.5% sodium dodecyl sulfate–polyacrylamide gel electrophoresis gels and transferred to a polyvinylidene fluoride membrane (Millipore-Sigma). […]

SMILES: Cn1cc(CNCC2CCN(c3ncc(C(=O)NO)cn3)CC2)c2ccccc21 [QST, quisinostat]
- %stability ([1]; 10 nM, time 0 hrs (15 minutes used as zero hour time point)): 101.6% and 100.2% and 98.2%
- %stability ([1]; 10 nM, time 0 hrs (15 minutes used as zero hour time point), mean): 100.0%
- %stability ([1]; 10 nM, time 2 hrs): 102.7% and 80.7% and 97.1%
- %stability ([1]; 10 nM, time 2 hrs, mean): 93.5%
- %stability ([1]; 10 nM, time 5 hrs): 88.0% and 90.7% and 90.1%
- %stability ([1]; 10 nM, time 5 hrs, mean): 89.6%
- %stability ([1]; 10 nM, time 24 hrs): 69.7% and 66.1%
- %stability ([1]; 10 nM, time 24 hrs, mean): 68.5%
- %stability ([1]; 100 nM, time 0 hrs (15 minutes used as zero hour time point)): 85.1% and 110.5% and 104.4%
- %stability ([1]; 100 nM, time 0 hrs (15 minutes used as zero hour time point), mean): 100.0%
- %stability ([1]; 100 nM, time 2 hrs): 109.4% and 82.9% and 110.7%
- %stability ([1]; 100 nM, time 2 hrs, mean): 101.0%
- %stability ([1]; 100 nM, time 5 hrs): 95.9% and 77.8% and 80.7%
- %stability ([1]; 100 nM, time 5 hrs, mean): 84.8%
- %stability ([1]; 100 nM, time 24 hrs): 73.1% and 67.2% and 68.6%
- %stability ([1]; 100 nM, time 24 hrs, mean): 69.6%
- QST intact in cell media ([1]; neurobasal medium, 24-hour incubation, 37°C): approximately 70%
- H3K9/14ac levels normalized to B-actin (orthotopic GB126 tumors; QST + IR): 7.331 fold change and 7.39 fold change and 6.951 fold change
- H3K27ac levels normalized to B-actin (orthotopic GB126 tumors; QST + IR): 1.842 fold change and 4.36 fold change and 3.819 fold change
- H3K9/14ac levels normalized to B-actin (orthotopic GB126 tumors; QST): 5.4 fold change and 6.4803 fold change and 5.818 fold change
- H3K27ac levels normalized to B-actin (orthotopic GB126 tumors; QST): 4.65 fold change and 3.97 fold change and 2.306 fold change
- tolerability (weight loss) ([2]; 10 mg/kg IP MWF for 2 weeks, non-tumor-bearing athymic nude mice): well tolerated
- weight of normal nude mice during QST treatment ([2]; treatment day 1): 28.1 g (2×) and 28.4 g and 26.7 g and 26.2 g and 20.2 g
- weight of normal nude mice during QST treatment ([2]; treatment day 2): 27.9 g and 27.4 g and 26 g and 26.7 g and 20.4 g and 27.5 g
- weight of normal nude mice during QST treatment ([2]; treatment day 3): 27.4 g and 27.9 g and 25.6 g and 27.2 g and 20.3 g and 27.8 g
- weight of normal nude mice during QST treatment ([2]; treatment day 4): 28.1 g and 27.7 g and 25.7 g and 27 g (2×) and 20.8 g
- weight of normal nude mice during QST treatment ([2]; treatment day 5): 27.5 g and 27.4 g and 26.5 g and 27.1 g (2×) and 20.3 g
- weight of normal nude mice during QST treatment ([2]; treatment day 6): 27.4 g and 27 g and 26.9 g and 27.2 g and 20.2 g and 27.1 g
- H3K9/14ac levels normalized to B-actin (fold change) [3]: 2.1642 and 2.588 and 3.2892 and 1.999 and 1.763
